According to US6590140B1, “Metal-regulated transporters and uses therefor” (Trustees of Dartmouth College, priority 1996, dated 2003):
Read-outs that look alike come from different tables or passages of the source.

Molecular target: T1, high affinity zinc uptake system (Zrt1p) (Saccharomyces cerevisiae, UniProt P32804)
T1 construct: endogenous in cells; host or cells: S. cerevisiae DY1457 (wild type, zinc-limited) and ZHY2 (zrt2); one kinetic value comes from ZHY1 carrying pOE1 (ZRT1 ORF under the GAL1 promoter)
Assay: 65Zn uptake assay in yeast, high affinity zinc uptake system
Assay type: cell-based
Conditions: for effect on zinc uptake by the high affinity system: 20 μM added metal, zinc-limited wild type
Procedure: Zinc uptake assays were performed as described previously for iron uptake (Eide et al. J. Biol. Chem. 267:20774-20781) except that ^65ZnCl2 (Amersham Corp., Arlington Heights, Ill.) and LZM-EDTA were substituted for ^59FeCl3 and LIM-EDTA. Cells were incubated at 30° C. with ^65Zn for five minutes, filtered, and washed with 10 ml ice-cold SSW. Cell-associated radioactivity was measured by liquid scintillation. Kinetic values were derived using KinetAsyst software (IntelliKinetics, Princeton, N.J.). Zinc accumulation was measured in cells grown in LZM medium supplemented with […] ^65Zn plus nonradioactive zinc to the indicated final concentration. Aliquots (0.5 ml) were filtered, washed with 10 ml ice-cold SSW, and counted by liquid scintillation. b-galactosidase activity was assayed as described by Guarente (Guarante, L. (1983) Methods Enzymol101:181-191).
Zinc uptake assays were performed as described previously for iron uptake (Eide et al. (1992) J. Biol. Chem. 267:20774-20781) except that ^65ZnCl2 (Amersham) and LZM-EDTA were substituted for ^59FeCI3 and LIM-EDTA, respectively. Cells were incubated for 5 minutes in LZM-EDTA plus the indicated concentration of ^65Zn, collected on glass fiber filters (Schleicher and Schuell), washed with 10 ml ice-cold SSW (1 mM EDTA, 20 mM trisodium citrate, 1 mM KH2PO4, 1 mM CaCl2, 5 mM MgSO4, 1 mM NaCl pH 4.2), and cell-associated radioactivity was measured by liquid scintillation counting. Cells were starved for glucose by incubating them in LZM-EDTA prepared without glucose for one hour at 30° C. prior to assay. Michaelis-Menten kinetic values were determined using […] software (Intellikinetics, Princeton, N.J.). Stock solutions of the chloride salts of Co, Cu, Mg, Mn, and Ni were prepared in distilled water at a concentration of 100 mM. The nonradioactive ZnCl2 stock was prepared at 100 mM in 0.02 N HCl and the FeCl3 stock was prepared at 50 mM in 0.1 N HCl. The statistical significance of the differences of values relative to controls was determined with one-way analysis of variance (ANOVA) followed by a Dunnett multiple comparison test. β-galactosidase activity was assayed in cells harvested at an OD600 of 0.5-2.0 as described by Guarente (Guarente, L. (1983) Methods Enzymol. 101:181-191) and activity is expressed as the change in absorbance at 420 nm×1000 divided by (min×ml of culture used×OD600 of the culture). Cell-associated zinc was measured in parallel cultures supplemented with tracer amounts of ^65Zn (10 μM) and nonradioactive zinc to the indicated final concentration. Aliquots (0.5 ml) were filtered, washed with 10 ml ice-cold SSW, and radioactivity measured by liquid scintillation.
To determine if ZRT1 plays a role in zinc uptake, the biochemical properties of this process in wild type cells were first characterized. […] Wild type (FIG. 10, DY1457, squares) and zrt1 mutant (FIG. 10, ZHY1, circles) cells were grown to exponential phase in zinc-limited (open symbols, FIG. 10) and zinc-replete (FIG. 10, closed symbols) media and assayed for zinc uptake rate over a range ZnSO4 concentrations. Zinc-limited media was LZM+10 μM zinc for the wild type and LZM+500 μM zinc for the mutant. Zinc-replete conditions were LZM+1000 μM for both strains. ZHY1(pOE1) cells (FIG. 10, triangles) were grown in zinc-replete SDgal medium.
Mutant zrt1 (ZHY1) cells were grown in LZM supplemented with 1 mM ZnCl2. Cells were incubated with 10 μM ^65Zn for the indicated times at either […]

T1 sequence (P32804 whole entry): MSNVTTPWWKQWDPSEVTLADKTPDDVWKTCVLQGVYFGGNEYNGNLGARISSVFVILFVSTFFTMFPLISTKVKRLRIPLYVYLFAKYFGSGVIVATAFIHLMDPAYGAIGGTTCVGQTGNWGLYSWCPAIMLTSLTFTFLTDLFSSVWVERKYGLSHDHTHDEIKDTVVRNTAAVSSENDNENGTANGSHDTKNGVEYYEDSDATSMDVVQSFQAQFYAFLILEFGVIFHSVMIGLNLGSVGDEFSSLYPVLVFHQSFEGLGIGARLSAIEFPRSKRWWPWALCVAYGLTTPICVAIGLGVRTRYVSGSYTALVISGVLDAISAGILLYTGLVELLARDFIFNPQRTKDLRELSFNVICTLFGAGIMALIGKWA

SMILES: [Cl-].[Cl-].[Co+2] [Co]
- effect on zinc uptake by the high affinity system (2 μM 65Zn, five minutes): unaffected

SMILES: [Cl][Cu][Cl] [Cu]
- effect on zinc uptake by the high affinity system (2 μM 65Zn, five minutes): inhibitory

SMILES: [Fe+2] [Fe(II)]
- effect on zinc uptake by the high affinity system (2 μM 65Zn, five minutes): inhibitory

SMILES: [Cl][Fe]([Cl])[Cl] [Fe(III)]
- effect on zinc uptake by the high affinity system (2 μM 65Zn, five minutes): unaffected

SMILES: [Cl][Mn][Cl] [Mn]
- effect on zinc uptake by the high affinity system (2 μM 65Zn, five minutes): unaffected

SMILES: [Cl][Ni][Cl] [Ni]
- effect on zinc uptake by the high affinity system (2 μM 65Zn, five minutes): unaffected

SMILES: [Zn+2] [zinc]
- control rate of zinc uptake (2 μM 65Zn, five minutes, wild type grown in LZM + 10 μM ZnCl2, no other metal): 47 pmol/min/10^6 cells
- effect on zinc uptake by the high affinity system (2 μM 65Zn, five minutes): inhibitory
- Vmax of zinc uptake (ZHY1(pOE1), ZRT1 expressed from GAL1 promoter, zinc-replete cells, galactose): 30 pmol/min/10^6 cells
- Km (ZHY1(pOE1), ZRT1 expressed from GAL1 promoter, zinc-replete cells, galactose, read-out: apparent Km of zinc uptake): 0.6 ± 0.1 µM
- Km (calculated free zinc, read-out: apparent Km of the high affinity system, calculated free zinc concentration): ~0.01 µM
- Km (total zinc, read-out: apparent Km of the high affinity system, total zinc): 1 µM
- Vmax of zinc uptake (wild type DY1457, zinc-limited cells (LZM+10 μM zinc)): 80 pmol/min/10^6 cells
- Km (wild type DY1457, zinc-limited cells (LZM+10 μM zinc), read-out: apparent Km of zinc uptake): 1 ± 0.1 µM
- Vmax (wild type, low growth medium [Zn] (LZM + 10 μM ZnCl2), mean ± SE): 76 ± 2 pmol/min/10^6
- Km (wild type, low growth medium [Zn] (LZM + 10 μM ZnCl2), total zinc, mean ± SE, read-out: Km): 0.52 ± 0.07 µM
- Vmax (zrt2, high growth medium [Zn] (LZM + 1.5 mM ZnCl2), mean ± SE): 0.31 ± 0.01 pmol/min/10^6
- Km (zrt2, high growth medium [Zn] (LZM + 1.5 mM ZnCl2), total zinc, mean ± SE, read-out: Km): 0.4 ± 0.04 µM
- Vmax (zrt2, low growth medium [Zn], mean ± SE): 60 ± 2 pmol/min/10^6
- Km (zrt2, low growth medium [Zn], total zinc, mean ± SE, read-out: Km): 0.85 ± 0.18 µM
